What was measured:
[1] = test system: Glycine Receptor (strychnine-sensitive); test: Selectivity panel: glycine receptor; format: binding; conditions: 10 µM
Dopamine Transporter = Dopamine Transporter (Homo sapiens, UniProt Q01959); test: Selectivity panel: dopamine transporter; format: binding; conditions: read-out: I% (antagonistic or inhibitory), Dopamine Transporter
Description: (§1) Supplement 41598_2018_22081_MOESM1_ESM.docx, table 2: Supplementary table 2: Selectivity profile of JBSNF-000088 (at 10 µM) vs a panel of 34 receptors, channels and enzymes. | column: I% (antagonistic or inhibitory)

in vivo = conditions: C57BL/6, mouse
[2] = biological target: Serotonin Receptor 1A (5HT1A) (Homo sapiens, UniProt P08908); test: Selectivity panel: 5HT1A; format: cell-based
Description: (§2) Supplement 41598_2018_22081_MOESM1_ESM.docx, table 2: Supplementary table 2: Selectivity profile of JBSNF-000088 (at 10 µM) vs a panel of 34 receptors, channels and enzymes. | column: E% (agonistic); I% (antagonistic or inhibitory)

plasma MNA levels = test system: plasma MNA levels
Description: Samples for MNA were analyzed employing a fit-for-purpose LC-MS/MS method. PE-Sciex API-4000 triple quadrupole (PerkinElmerSciex Instruments, Boston, MA) mass spectrometer was employed for this analysis. Samples (5 µL) were injected onto Kinetex HILIC (50 × 4.6 mm, 2.6 µm; Phenomenex, Torrance, CA, USA) column connected to Shimadzu VP (Shimadzu, Japan) LC system. The gradient mobile phase mixture of 0.2% formic acid and acetonitrile was delivered at a flow rate of 0.45 ml min-1 into the mass spectrometer electrospray ionization (ESI) chamber. Quantitation was achieved by MS/MS detection in positive ion mode for MNA and internal standard (d4–MNA). Detection of the ions was performed in the multiple reaction monitoring (MRM) mode, monitoring the transition of the m/z 137 precursor ion to the m/z 92 product ion for MNA and m/z 141 precursor ion to the m/z 84 product ion for d4-MNA (internal standard).
A simple protein precipitation extraction method was followed for extraction of N-methylnicotinamide from plasma and various tissue homogenate samples. The tissue samples were homogenized with 1:3 proportions of phosphate buffer saline (PBS) and this homogenate was used for N-Methylnicotinamide determinations. […] The supernatant was separated and transferred to pre-labeled HPLC vials and analyzed by LC-MS/MS system.

[3] = 0.5 h
[4] = biological target: Acetylcholinesterase (AChE) (Homo sapiens, UniProt P22303); test: Selectivity panel: AChE; format: biochemical; conditions: read-out: I% (antagonistic or inhibitory), AChE
Description: as §1

[5] = test system: Phencyclidine Receptor (PCP); test: Selectivity panel: PCP; format: binding; conditions: 10 µM
Description: as §1

[6] = biological target: adrenergic, alpha-1A-, receptor (ADRA1A) (Homo sapiens, UniProt P35348); test: Selectivity panel: ADRA1A; format: cell-based
Description: as §2

[7] = biological target: Norepinephrin (Noradrenalin) Transporter (Homo sapiens, UniProt P23975); test: Selectivity panel: norepinephrine transporter; format: binding; conditions: read-out: I% (antagonistic or inhibitory), Norepinephrin (Noradrenalin) Transporter
Description: as §1

[8] = biological target: Cannabinoid Receptor 1 (CB1) (Homo sapiens, UniProt P21554); test: Selectivity panel: CB1; format: cell-based
Description: as §2

[9] = C57BL/6, mouse, in vivo, iv
[10] = biological target: Adrenoreceptor beta 2 (ADRB2) (Homo sapiens, UniProt P07550); test: Selectivity panel: ADRB2; format: cell-based
[11] = test system: K+ Channel Voltage Dependent; test: Selectivity panel: K+ channel; format: binding; conditions: 10 µM
Cl- Channel = test: Selectivity panel: Cl- channel; format: binding; conditions: 10 µM

Sequence of Cannabinoid Receptor 1 (CB1) (P21554 whole entry): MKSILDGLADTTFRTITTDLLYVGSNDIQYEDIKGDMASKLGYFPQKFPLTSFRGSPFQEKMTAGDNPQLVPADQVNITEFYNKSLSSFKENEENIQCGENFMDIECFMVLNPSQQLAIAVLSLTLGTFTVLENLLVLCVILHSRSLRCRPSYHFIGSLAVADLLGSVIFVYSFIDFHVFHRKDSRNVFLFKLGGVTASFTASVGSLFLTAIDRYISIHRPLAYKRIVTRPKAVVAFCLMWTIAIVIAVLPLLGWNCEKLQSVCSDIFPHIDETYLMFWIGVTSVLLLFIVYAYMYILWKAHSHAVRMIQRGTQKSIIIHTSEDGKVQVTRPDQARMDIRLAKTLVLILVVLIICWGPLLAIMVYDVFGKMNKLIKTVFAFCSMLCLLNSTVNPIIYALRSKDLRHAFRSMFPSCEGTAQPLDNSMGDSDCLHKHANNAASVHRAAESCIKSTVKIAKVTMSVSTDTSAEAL
Sequence of adrenergic, alpha-1A-, receptor (ADRA1A) (P35348 whole entry): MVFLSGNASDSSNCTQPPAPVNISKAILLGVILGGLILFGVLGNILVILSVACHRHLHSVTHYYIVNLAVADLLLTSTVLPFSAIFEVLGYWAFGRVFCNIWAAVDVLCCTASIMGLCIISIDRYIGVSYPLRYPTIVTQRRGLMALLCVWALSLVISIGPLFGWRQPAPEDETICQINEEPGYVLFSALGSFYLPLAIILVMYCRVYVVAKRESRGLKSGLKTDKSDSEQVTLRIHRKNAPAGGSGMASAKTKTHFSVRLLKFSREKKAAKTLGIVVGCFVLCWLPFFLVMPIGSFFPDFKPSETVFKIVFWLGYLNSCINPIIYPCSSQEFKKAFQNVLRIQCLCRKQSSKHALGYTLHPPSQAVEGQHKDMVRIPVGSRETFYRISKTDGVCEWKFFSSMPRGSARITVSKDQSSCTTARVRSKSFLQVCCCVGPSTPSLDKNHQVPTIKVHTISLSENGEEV
Sequence of Serotonin Receptor 1A (5HT1A) (P08908 whole entry): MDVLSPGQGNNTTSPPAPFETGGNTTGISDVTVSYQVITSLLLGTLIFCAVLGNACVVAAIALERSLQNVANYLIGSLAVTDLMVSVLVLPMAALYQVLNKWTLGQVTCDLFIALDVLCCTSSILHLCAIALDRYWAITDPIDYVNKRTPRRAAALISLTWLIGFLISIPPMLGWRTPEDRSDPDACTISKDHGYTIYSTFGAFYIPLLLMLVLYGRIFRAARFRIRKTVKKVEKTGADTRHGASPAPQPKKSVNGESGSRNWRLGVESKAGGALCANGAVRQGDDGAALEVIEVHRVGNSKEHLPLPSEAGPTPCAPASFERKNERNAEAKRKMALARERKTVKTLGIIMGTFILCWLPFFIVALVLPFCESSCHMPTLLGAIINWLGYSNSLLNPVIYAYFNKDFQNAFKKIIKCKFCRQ
Sequence of Adrenoreceptor beta 2 (ADRB2) (P07550 whole entry): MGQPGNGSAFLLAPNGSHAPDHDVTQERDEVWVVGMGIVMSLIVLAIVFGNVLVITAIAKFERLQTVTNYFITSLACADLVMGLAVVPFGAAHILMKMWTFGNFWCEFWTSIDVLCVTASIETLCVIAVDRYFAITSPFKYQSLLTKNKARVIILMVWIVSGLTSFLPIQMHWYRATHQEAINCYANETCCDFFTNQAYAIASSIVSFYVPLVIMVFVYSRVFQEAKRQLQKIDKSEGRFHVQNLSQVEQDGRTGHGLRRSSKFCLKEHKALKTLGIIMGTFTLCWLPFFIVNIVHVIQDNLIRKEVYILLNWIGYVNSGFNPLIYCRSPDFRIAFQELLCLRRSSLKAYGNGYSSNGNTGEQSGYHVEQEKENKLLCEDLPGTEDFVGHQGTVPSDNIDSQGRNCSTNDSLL
Sequence of Acetylcholinesterase (AChE) (P22303 32-614): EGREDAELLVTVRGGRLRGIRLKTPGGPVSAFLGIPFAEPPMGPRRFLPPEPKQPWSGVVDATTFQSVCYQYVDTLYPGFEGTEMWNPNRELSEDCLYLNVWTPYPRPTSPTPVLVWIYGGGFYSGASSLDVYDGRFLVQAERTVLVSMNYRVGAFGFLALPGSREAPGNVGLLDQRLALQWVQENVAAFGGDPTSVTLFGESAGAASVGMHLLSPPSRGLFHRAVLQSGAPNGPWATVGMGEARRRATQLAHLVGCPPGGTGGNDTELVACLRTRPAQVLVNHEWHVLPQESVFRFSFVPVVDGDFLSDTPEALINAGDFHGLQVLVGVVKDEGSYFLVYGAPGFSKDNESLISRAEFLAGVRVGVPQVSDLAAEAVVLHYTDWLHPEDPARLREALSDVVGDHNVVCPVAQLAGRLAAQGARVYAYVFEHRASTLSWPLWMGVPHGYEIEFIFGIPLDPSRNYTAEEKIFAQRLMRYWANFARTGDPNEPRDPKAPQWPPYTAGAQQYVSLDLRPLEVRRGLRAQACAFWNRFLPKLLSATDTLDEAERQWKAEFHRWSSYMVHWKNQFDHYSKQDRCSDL
Sequence of Norepinephrin (Noradrenalin) Transporter (P23975 whole entry): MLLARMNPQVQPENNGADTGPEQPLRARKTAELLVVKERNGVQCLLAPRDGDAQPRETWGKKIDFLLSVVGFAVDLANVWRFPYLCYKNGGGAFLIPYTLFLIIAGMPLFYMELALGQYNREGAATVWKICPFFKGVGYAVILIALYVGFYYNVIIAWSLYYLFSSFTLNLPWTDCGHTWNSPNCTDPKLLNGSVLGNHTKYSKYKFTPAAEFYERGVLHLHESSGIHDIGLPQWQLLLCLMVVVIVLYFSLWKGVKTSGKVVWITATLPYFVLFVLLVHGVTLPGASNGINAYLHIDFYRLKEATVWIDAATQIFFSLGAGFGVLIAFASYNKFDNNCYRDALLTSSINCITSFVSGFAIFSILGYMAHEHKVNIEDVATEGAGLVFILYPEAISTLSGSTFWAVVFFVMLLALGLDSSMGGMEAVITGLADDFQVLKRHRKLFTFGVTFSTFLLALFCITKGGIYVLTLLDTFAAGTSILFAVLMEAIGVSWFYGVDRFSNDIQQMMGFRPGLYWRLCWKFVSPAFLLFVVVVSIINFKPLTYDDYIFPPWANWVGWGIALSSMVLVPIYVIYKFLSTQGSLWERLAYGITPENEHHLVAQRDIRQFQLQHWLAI
Sequence of Dopamine Transporter (Q01959 whole entry): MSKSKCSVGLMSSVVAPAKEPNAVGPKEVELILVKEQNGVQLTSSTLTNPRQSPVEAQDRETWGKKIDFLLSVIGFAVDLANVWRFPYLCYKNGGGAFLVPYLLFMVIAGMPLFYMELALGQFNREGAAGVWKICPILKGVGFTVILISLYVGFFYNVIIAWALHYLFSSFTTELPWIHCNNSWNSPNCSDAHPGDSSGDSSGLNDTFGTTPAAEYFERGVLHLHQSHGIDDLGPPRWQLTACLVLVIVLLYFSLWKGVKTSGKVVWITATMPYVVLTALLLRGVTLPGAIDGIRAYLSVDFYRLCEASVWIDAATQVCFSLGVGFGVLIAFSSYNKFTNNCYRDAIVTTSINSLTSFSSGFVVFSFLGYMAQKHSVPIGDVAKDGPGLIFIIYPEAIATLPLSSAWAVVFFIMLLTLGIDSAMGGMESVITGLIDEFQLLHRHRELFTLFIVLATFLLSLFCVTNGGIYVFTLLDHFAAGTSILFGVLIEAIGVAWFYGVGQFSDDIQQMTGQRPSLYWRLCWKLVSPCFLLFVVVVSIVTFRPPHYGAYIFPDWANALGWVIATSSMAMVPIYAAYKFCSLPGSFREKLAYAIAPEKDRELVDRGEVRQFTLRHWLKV

With COc1ccc(C(N)=O)cn1 [JBSNF-000088, 6-methoxynicotinamide] the “I% (antagonistic or inhibitory), Glycine Receptor (strychnine-sensitive)” value [1] was -7%, the inhibition at 10 µM (Dopamine Transporter) was 7% and the Vd (in vivo) was 0.69 L/kg. The bioavailability (in vivo) was 43%, the clearance (in vivo) was 20.5 mL/min/kg and the clearance (in vivo; iv) was 21 mL/min/kg. The half-life (in vivo; iv) was 30 min, the Cmax (in vivo; po, 10 mg/kg) was 3570 ng/mL and the Tmax (in vivo; po, 10 mg/kg) was 30 min. The bioavailability (in vivo; po, 10 mg/kg) was about 40%, the half-life (in vivo; po, 10 mg/kg) was 24 min and the “E% (agonistic), 5HT1A” value ([2]; 10 µM) was 5%. For the same molecule, the inhibition at 10 µM ([2]; read-out: I% (antagonistic or inhibitory), 5HT1A) was -13%, the “plasma MNA levels” value (plasma MNA levels; 50 mg kg^−1 orally, C57BL/6 mice, till 4 h post dosing) was “Significant reductions” and the “reduction of plasma MNA levels” value (plasma MNA levels; Discussion statement) was ~ 50%. For the same molecule, the “Metabolic stability mouse microsomes (% remaining)” value [3] was 79%, the inhibition at 10 µM [4] was 2% and the “I% (antagonistic or inhibitory), PCP” value [5] was -11%. The “E% (agonistic), ADRA1A” value ([6]; 10 µM) was -2%, the inhibition at 10 µM ([6]; read-out: I% (antagonistic or inhibitory), ADRA1A) was -3% and the inhibition at 10 µM [7] was 9%. For the same molecule, the “E% (agonistic), CB1” value ([8]; 10 µM) was 0%, the inhibition at 10 µM ([8]; read-out: I% (antagonistic or inhibitory), CB1) was 1% and the “plasma clearance as share of hepatic blood flow in mice” value [9] was “approximately 25%”. The “E% (agonistic), ADRB2” value ([10]; 10 µM) was 1%, the inhibition at 10 µM ([10]; read-out: I% (antagonistic or inhibitory), ADRB2) was 1% and the “I% (antagonistic or inhibitory), K+ Channel Voltage Dependent” value [11] was 3%. For the same molecule, the “I% (antagonistic or inhibitory), Cl- Channel” value (Cl- Channel) was 8%.
